Legend:
[1] = tested on: mice injected with LPS; test: Organ injury and dysfunction in a mouse model of septic shock (LPS); type: in vivo, C57BL/6 mice; settings: 10 mg/kg, all three treatment groups (i.p. 1 h post-LPS, i.v. 1 h post-LPS, i.p. 30 min pre-LPS)
Protocol: Twenty-six male C57BL/6 mice (Harlan Laboratories, Wyton, UK), weighing 20-30 g were used for this experiment. At time point 0 (t=0 h) mice received either LPS (9 mg/kg in 5 ml/kg 0.9% NaCl) or vehicle (5 ml/kg 0.9% NaCl) intraperitoneally (i.p.). Mice were then sacrificed 16-18 h after the injection of LPS by induction of anaesthesia with ketamine (100 mg/ml)/xylazine (20 mg/ml) solution in a 2:1 ratio and removal of the heart.
At the end of the experiment, 0.7 ml blood was collected from the right carotid artery and decanted into serum gel tubes (Sarstedt, Numbrecht, Germany). The samples were centrifuged (9900 rpm for 3 min) to separate serum from which urea, creatinine and alanine aminotransferase (ALT) were measured within 24 hours (Idexx Laboratories Ltd., West Yorkshire, UK).
Share-operated nice received saline (5 ml/kg i.p.) instead of LPS.

[2] = tested on: rats subjected to regional myocardial ischaemia and reperfusion; test: Regional myocardial ischaemia and reperfusion, artesunate dissolved in 10% DMSO; type: in vivo, Wistar rats; settings: for Infarct size reduction: vs control; for infarct size (percentage of the AAR): control 59.8±3.2%, P<0.05
Protocol: (§1) Rats were anesthetised with thiopentone sodium (Intraval® 120 mg/kg i.p.). Anesthesia was maintained by supplementary injections of thiopentone sodium as required. The trachea was cannulated and the animals were ventilated with a Harvard ventilator (inspiratory oxygen concentration: 30%; 70 strokes/min, tidal volume: 8-10 ml/kg). Body temperature was maintained at 37+1° C. with the aid of a rectal probe thermometer attached to a homeothermic blanket unit (Harvard Apparatus Ltd., Edenbridge, Kent. U.K.). […] The right jugular vein was then cannulated for the administration of drugs and saline. A para-sternal thoracotomy was then performed, using an Electrosurgery device to cauterize the intercostals arteries before cutting through three ribs. The chest was retracted and pericardium dissected from the heart. The left anterior descending (LAD) coronary artery was isolated and a snare occluder was placed around the LAD. The retractor was then removed and the animal was allowed to stabilise for 15 min.
The occluder was tightened at time 0. After 25 min of LAD-occlusion, the occluder was released to allow reperfusion of the previously ischemic myocardium (2 h). Hemodynamic parameters were continuously monitored. Baseline readings were taken prior to treatment, and, myocardial IRI. The pressure rate index (PRI), a relative indicator of myocardial oxygen consumption was calculated as a product of the MAP (mmHg) and HR (beats/minute-bpm) and expressed in mm Hg bpm×10-3.
(§2) At the end of the 2 h reperfusion period, the LAD was re-occluded and 1 ml of Evans Blue dye (2% w/v) was injected into the animal, via the jugular vein. The Evans Blue dye stains the tissue it can circulate through, therefore the non-perfused vascular (occluded) tissue remains un-coloured. Each animal was killed with an over-dose of anaesthetic, the heart excised, and excess dye washed off. […] The ischaemic and non-ischaemic tissue was weighed, and the AAR expressed as a percentage of the left ventricle. The tissue from the AAR was cut into small pieces and incubated with p-nitroblue tetrazolium (NBT, 0.5 mg/ml) for 30 min at 37° C. NBT is a reducing agent that reacts with dehydrogenases present in viable (non-infarcted) tissue to produce a dark blue formazan. Infarcted tissue (non-viable) will not have dehydrogenase activity and will therefore fail to stain. The stained tissue was separated from the infarcted tissue, weighed, and the infarct size expressed as a percentage of the AAR.

[3] = tested on: rats subjected to regional myocardial ischaemia and reperfusion; test: Regional myocardial ischaemia and reperfusion, artesunate and dihydroartemisinin; type: in vivo, Wistar rats
Protocol: as §1, with “anaesthetised” for “anesthetised”, “Anaesthesia” for “Anesthesia”, “37±1°” for “37+1°”
The occluder was tightened at time 0. After 25 min of LAD-occlusion, the occluder was released to allow reperfusion of the previously ischemic myocardium (2 h). Haemodynamic parameters were continuously monitored. Baseline readings were taken prior to treatment, and, myocardial ischaemia reperfusion (IR) injury. The pressure rate index (PRI), a relative indicator of myocardial oxygen consumption was calculated as a product of the MAP (mmHg) and HR (beats/minute-bpm) and expressed in mm Hg bpm×10^−3.
as §2
Sham-operated rats were subjected to surgical procedure without myocardial ischaemia and reperfusion.

[4] = tested on: burn injury rats; test: Organ injury and dysfunction induced by burn injury in the rat; type: in vivo, Wistar rats; settings: 3 mg/kg i.v. 30 min prior to and 30 min after burn injury
Protocol: Twenty-two male Wistar rats (Harlan, Udine, Italy) weighing 300 to 350 g were anaesthetised with sodium pentobarbital (Eutasil™, 60 mg/kg i.p.; Sanofi Veterinária, Algés, Portugal), which was supplemented as required. Anaesthetised rats were shaved (dorsum and abdomen) and placed onto a thermostatically controlled heating mat (Harvard Apparatus Ltd, Kent, U.K.) and body temperature maintained at 37±1° C. by means of a rectal probe attached to a homeothermic blanket. A tracheotomy was performed to maintain airway patency and to facilitate spontaneous respiration. Thirty minutes prior to burn injury, rats were treated with vehicle or drug, as described in section 3.2. To induce burn injury, a 60% third degree skin burn was induced by immersing dorsal shaved skin in 99° C. water for 10 s using a synthetic foam template. The rats were then dried and placed over the heating mat. Rats were sacrificed at 6 hours after burn injury by overdose of the anaesthetic and serum samples obtained for analysis of organ injury and dysfunction.
Sham-operated rats underwent identical surgical procedures but without burn injury (immersed in room temperature water).

[5] = bolus 10, 3, 1 mg/kg in 10% DMSO upon reperfusion, P>0.05 vs Control
[6] = bolus 1 mg/kg upon reperfusion, P>0.05 vs Control

For C[C@H]1[C@H](OC(=O)CCC(=O)O)O[C@@H]2O[C@@]3(C)CC[C@H]4[C@H](C)CC[C@@H]1[C@@]24OO3 [artesunate], the “rise in serum ALT” value [1] was “no significant effect”, the “rise in serum creatinine” value ([1]; P>0.05) was “no significant effect” and the “rise in serum urea” value ([1]; P>0.05) was “no significant effect”. The Infarct size reduction ([2]; 1 mg/kg i.v. upon reperfusion) was 12%, the “infarct size (percentage of the AAR)” value ([2]; 1 mg/kg i.v. upon reperfusion) was 48.0±3.5% and the Infarct size reduction ([2]; 3 mg/kg i.v. upon reperfusion) was 13%. For the same compound, the “infarct size (percentage of the AAR)” value ([2]; 3 mg/kg i.v. upon reperfusion) was 46.9±2.3%, the “infarct size (percentage of the AAR)” value ([2]; 10 mg/kg i.v. bolus upon reperfusion, 25 min ischaemia, 2 h reperfusion) was 42.8±1.7% and the Infarct size reduction ([2]; 10 mg/kg i.v. upon reperfusion) was 28%. For the same compound, the “fall in mean arterial blood pressure caused by myocardial ischaemia and reperfusion” value [2, 5] was “did not attenuate”, the heart rate [2, 5] was “did not have a significant effect” and the “infarct size (percentage of the AAR)” value ([3]; 1 mg/kg i.v. bolus upon reperfusion, from 59.8±3.2, P<0.05) was 36.0±1.1%. The Infarct size reduction ([3]; 1 mg/kg i.v. upon reperfusion, vs control) was 40%, the area at risk ([3]; 1 mg/kg, compared to vehicle treated rats) was “no significant effect” and the “fall in mean arterial blood pressure caused by myocardial ischaemia and reperfusion” value [3, 6] was “did not attenuate”. For the same compound, the heart rate [3, 6] was “did not have a significant effect”, the “rise in serum creatinine” value ([4]; 6 h after burn, P<0.05) was “significantly attenuated” and the “rise in serum urea” value ([4]; 6 h after burn, P<0.05) was “significantly attenuated”. The “rise in serum ALT” value ([4]; P>0.05) was “no significant effect” and the “rise in serum AST” value ([4]; P>0.05) was “no significant effect”.

From patent publication US9949948B2, “Artemisinin and its derivatives for use in the treatment of trauma haemorrhage and associated conditions” (Queen Mary University of London, priority 2011, dated 2018)
